Test results: article PMC11809919, “Quinoxaline-based anti-schistosomal compounds have potent anti-plasmodial activity” (PLOS Pathogens, 2025)
Values joined by “and” are separate entries in the source; they are usually repeats but may differ in a detail not shown here. Equal values may be shown once. Read-outs that look alike come from different tables or passages of the source.

What was measured:
β-hematin formation = assay: Detergent-based β-hematin inhibition assay; type: biochemical; details: cell-free, NP40 detergent, pH 4.8
Procedure: From this stock 40 μL of each was delivered to wells in the final column (column 12) of a 96-well plate together with distilled water (120 μL) and NP40 detergent (305.5 mM, 40 μL). […] A serial dilution of each compound (100 μL) from column 12 to column 2 was carried out. Column 1 served as a blank with 0 mM sample. A 25 mM hematin stock solution was prepared by sonicating hemin in DMSO for one minute and then suspending 179 μL of this in a 1 M acetate buffer (20 mL, pH 4.8). […] The plate was covered and incubated at 37°C for 5 h. […] Acetone (60 μL) was then added to assist with hematin dispersion. The UV-vis absorbance of the plate wells was read on a SpectraMax […] plate reader.

[1] = tested on: 3D7 parasites (hemoglobin, 'free' heme, hemozoin); assay: Cellular heme fractionation assay; type: cell-based, Plasmodium falciparum; details: 3D7, 0.5 – 2.5× IC50, 30 h
Excerpt: Cellular heme fractionation to measure the amounts of different heme species was thereafter conducted as previously described. […] Pellets were then resuspended in 1× PBS (pH 7.5) and an aliquot of the trophozoite suspension used to quantify the total number of trophozoites isolated using flow cytometry. Contents of the remaining trophozoite pellet were then released by hypotonic lysis and sonication. […] The UV−visible spectrum of each heme fraction as an Fe(III)heme−pyridine complex was measured using a multi-well plate reader (Spectramax 340PC; Molecular Devices). The total amount of each heme species was quantified using a heme standard curve whereby the mass of each heme-Fe species per trophozoite (fg/cell) was calculated by dividing the total amount of each heme species by the corresponding number of parasites in that fraction as determined by flow cytometry. Statistical comparisons and analyses for trends were made on GraphPad Prism version 10 using Students’ t-test with Welch correction. The total amount of heme obtained from each fraction was quantified using a standard curve prepared from a 100 μg/mL heme standard solution of hematin (porcine) in 0.3 M NaOH. Serial dilutions of this standard were carried out in a 96-well plate with 100 μL 0.3 M NaOH as a blank. […] The visible spectra of heme as Fe(III)heme-pyridine complex were recorded in a multi-well plate reader. The amount of heme Fe per cell was calculated by dividing the total heme Fe in each fraction by the number of cells determined in each fraction.

P. falciparum 3D7 = assay: Compound dose-response assay (72 h, SYBR Green I), 3D7; type: cell-based, Plasmodium falciparum; details: for Selectivity index HepG2/3D7: HepG2 72 h CC50 / Pf 3D7 IC50; for IC50: 72 h, asexual blood stage; for Change of anti-plasmodial activity relative to compound 22: 3D7 and Dd2
Procedure: (§1) P. falciparum parasites were cultured at 3% hematocrit in RPMI 1640 (Gibco) medium consisting of 0.5% Albumax II (Gibco), 25 mM HEPES (Sigma), 0.21% sodium bicarbonate, 1x GlutaMAX (Gibco), 25 μg/mL gentamicin (Gibco). A tri-gas mixture (1% O2, 3% CO2, and 96% N2) was used for parasite cultures. Parasites were synchronized using a sorbitol and Percoll density gradient method. The following parasite strains were used: 3D7, Dd2 (MR4, MRA-156, T. Wellems), GB4 (MR4, MRA-925, T. Wellems), UG659 (P. Rosenthal), Tanzania (MR4, MRA-1169, Michal Fried), Cam/PH0212C (R. Fairhurst), and Cam3.II/ PH0306-C (R. Fairhurst). Transfection was performed using ring-stage parasites (5–8% parasitemia) using a Gene Pulser Xcell (Biorad) electroporator.
(§2) Compound dose-response assays were performed in flat-bottom 96-well plates. Tightly synchronized ring-stage parasites were diluted to 1% parasitemia at 2% hematocrit, and incubated with a two-fold serial dilution of compounds in complete medium. Untreated parasites or uninfected RBCs were included in the assay plate as controls. Parasite growth was assessed after 72 h by lysing parasites using 2× lysis buffer consisting of 10 mM Tris-HCl, 5 mM EDTA, 0.1% w/v saponin, and 1% v/v Triton X-100, supplemented with 2× SYBR Green I (Molecular Probes). The fluorescence was measured using a FluorStar Omega v5.11 plate reader. IC50 analysis was performed using GraphPad Prism v9, and statistical significance was determined by a two-sided Mann-Whitney U test. All assays were performed in technical duplicate with at least three biological replicates, as noted in the figure legends.

P. falciparum Dd2 = assay: Compound dose-response assay (72 h, SYBR Green I), Dd2; type: cell-based, Plasmodium falciparum; details: for Selectivity index HepG2/Dd2: HepG2 72 h CC50 / Pf Dd2 IC50; for IC50: Plasmodium falciparum, DD2, 72 h, 72 h, asexual blood stage
Procedure: as §1, §2

[2] = tested on: Dd2-Polδ clones C22-1.1 and C22-2.1; assay: Dose-response assay on compound 22-selected clones (cross-resistance); type: cell-based, Plasmodium falciparum
Procedure: Resistance selections were performed using a mutator parasite line Dd2-Polδ with an elevated mutation rate. Three independent flasks with either 1×10^8 or 1×10^9 parasites each were treated with 5×IC50, and parasite death was monitored by microscopy (Giemsa staining). […] After eight days, compounds were removed from the media and the media was changed on alternate days. […] For recrudescent cultures, compound susceptibility was determined by dose-response assays. Parasite clones were obtained by limiting dilution and harvested for genomic DNA extraction, followed by whole-genome sequencing.
as §2

S. mansoni schistosomula = tested on: S. mansoni schistosomula; design: method as in Padalino et al. [13]; details: ref Padalino et al. [13], cited from earlier work
HepG2 cells = tested on: HepG2 cells; design: method as in Padalino et al. [13]; details: ref Padalino et al. [13], cited from earlier work
[3] = tested on: P. falciparum PfQRP1 mutants (G1612V, D1863Y, D1829*, D1829A); assay: Dose-response assay on CRISPR-edited PfQRP1 mutant lines; type: cell-based, Plasmodium falciparum
Procedure: To generate the PfQRP1 hydrolase mutants (D1829stop and D1829A), the pDC2-Cas9-gRNA-donor plasmid was transfected into the P. falciparum Dd2 line. Donor plasmid (50 µg) containing the sgRNA ([…]) and a pfqrp1 homology region of 672 bp, centred on the D1829 residue, was used for transfection. Transfectants were selected using 5 nM WR99210 (a potent inhibitor of P. falciparum dihydrofolate reductase (DHFR) provided by Jacobus Pharmaceuticals) for 8 days, followed by culturing without drug until parasites were observed. Parasite clones were obtained using limiting dilution cloning. Confirmation of gene editing was performed with allele-specific PCR (forward primer […] and reverse primer […]) and Sanger sequencing using an internal primer ([…]).
as §2

[4] = read-out: βH Inhibition IC50, individual biological replicate
[5] = Plasmodium falciparum, 3D7, 72 h
[6] = 72 h, read-out: 72 h -phenotype EC50
[7] = average of phenotype and motility, read-out: Average EC50
[8] = HepG2, 24 h, read-out: 24 h CC50
[9] = HepG2, 72 h, read-out: 72 h CC50

| Compound | IC50 (β-hematin formation; mean of two biological replicates, listed as chloroquine, read-out: βH Inhibition IC50, mean) [nM] | IC50 (β-hematin formation; mean of two biological replicates, read-out: βH Inhibition IC50, mean) [nM] | IC50 (β-hematin formation; [4]) | Levels of 'free' heme or hemozoin relative to untreated controls [1] | Selectivity index HepG2/3D7 (P. falciparum 3D7) | IC50 (P. falciparum 3D7; [5]) [nM] | Selectivity index HepG2/Dd2 (P. falciparum Dd2) | IC50 (P. falciparum Dd2) [nM] | Shift in IC50 in compound 22-selected clones versus parental Dd2-Polδ [2] | EC50 (S. mansoni schistosomula; [6]) [nM] | EC50 (S. mansoni schistosomula; [7]) [nM] | EC50 (S. mansoni schistosomula; read-out: Motility EC50) [nM] | CC50 (HepG2 cells; [8]) [nM] | CC50 (HepG2 cells; [9]) [nM] | Change of anti-plasmodial activity relative to compound 22 (P. falciparum 3D7) | IC50 (P. falciparum 3D7) [nM] | Loss in potency (P. falciparum 3D7; relative to compound 22) | Effect of D1829 stop / D1829A PfQRP1 mutation on IC50 [3] |
| --- | --- | --- | --- | --- | --- | --- | --- | --- | --- | --- | --- | --- | --- | --- | --- | --- | --- | --- |
| CCN(CC)CCCC(C)Nc1ccnc2cc(Cl)ccc12 (stereo not shown) [Chloroquine, chloroquine] | 16000 | 15600 | 16700 nM and 14500 nM | significant concentration-dependent increases | – | – | – | – | – | – | – | – | – | – | – | – | – | – |
| C[C@H]1Cc2c([nH]c3cc(Cl)c(F)cc23)[C@@]2(N1)C(=O)Nc1ccc(Cl)cc12 [KAE609] | – | – | > 500000 nM | – | – | – | – | – | – | – | – | – | – | – | – | – | – | – |
| O=[N+]([O-])c1ccc2nc(Nc3ccc(F)c(C(F)(F)F)c3)c(Nc3ccc(F)c(C(F)(F)F)c3)nc2c1 [Compound 32] | – | – | – | – | 40.4 | 16.6 | 24.1 | 27.8 | modest shift with one of the compound 22-resistant clones | 890 | 720 | 540 | 7750 | 670 | – | – | – | – |
| O=[N+]([O-])c1ccc2nc(Nc3ccc(Cl)cc3)c(Nc3ccc(Cl)cc3)nc2c1 [Compound 26] | – | – | – | – | 4.3 | 29.9 | 3.5 | 36.8 | – | 420 | 410 | 390 | 13000 | 130 | – | – | – | – |
| O=C(Nc1ccc2nc(Nc3ccc(Cl)c(Cl)c3)c(Nc3ccc(Cl)c(Cl)c3)nc2c1)c1ccco1 [Compound 22f] | – | – | – | – | 19.8 | 287 ± 3.3 | 14.9 | 382 | – | 1910 | 1950 | 2000 | 14800 | 5690 | greatly diminished activity | 287 | – | – |
| O=[N+]([O-])c1ccc2nc(Nc3cccc(C(F)(F)F)c3)c(Nc3cccc(C(F)(F)F)c3)nc2c1 [Compound 30] | – | – | – | – | 67.2 | 13.4 | 40.9 | 22 | modest shift with one of the compound 22-resistant clones | 340 | 380 | 430 | 5850 | 900 | – | – | – | – |
| O=[N+]([O-])c1ccc2nc(Nc3cccc(Cl)c3)c(Nc3cccc(Cl)c3)nc2c1 [Compound 25] | – | – | – | – | 10.1 | 57.7 | 9.2 | 63.4 | – | 1220 | 1260 | 1300 | 6760 | 580 | – | – | – | – |
| O=[N+]([O-])c1ccc2nc(NCCc3ccccc3)c(NCCc3ccccc3)nc2c1 [Compound 37] | – | – | – | – | 20.5 | 220 | 17.1 | 264 | – | 2200 | 1840 | 1470 | 4400 | 4520 | – | – | ten-fold | – |
| CC(=O)Nc1ccc2nc(Nc3ccc(Cl)c(Cl)c3)c(Nc3ccc(Cl)c(Cl)c3)nc2c1 [Compound 22c] | – | – | – | – | 58.1 | 79 | 25.4 | 181 | – | 3040 | 2910 | 2790 | 8600 | 4590 | greatly diminished activity | – | – | – |
| CNC(=O)CNc1cnc2ccc(-c3ccc(OC)c(OC)c3)cc2n1 [BQR695, 2-[[7-(3,4-dimethoxyphenyl)quinoxalin-2-yl]amino]-N-methylacetamide, reference compound] | – | – | – | – | – | – | – | – | no cross resistance | – | – | – | – | – | – | – | – | – |
| 2-N,3-N-bis[3-(trifluoromethyl)phenyl]quinoxaline-2,3-diamine [MMV665794] | – | – | 257000 nM and 217000 nM | no significant changes | – | – | – | – | – | – | – | – | – | – | – | – | – | less potent |
| COc1ccc(Nc2nc3ccc([N+](=O)[O-])cc3nc2Nc2ccc(OC)c(C(F)(F)F)c2)cc1C(F)(F)F [Compound 35] | – | – | – | – | 7.4 | 57.8 | 3.8 | 112 | modest shift with one of the compound 22-resistant clones | 630 | 660 | 690 | 5640 | 430 | – | – | – | – |
